Laboratory results published in patent US20200399238A1, “THERAPEUTIC AURONES” (MIDDLE TENNESSEE STATE UNIVERSITY, priority 2016, published 2020).

Tests used:
[1] = test system: rat skeletal muscle cell line, L6; assay: cells; assay type: cell-based; conditions: Rattus norvegicus; Table 1; read-out: IC50 Toxicity (L6)
TNFα mRNA = assay: Quantitative RT-PCR of TNF-α transcription, THP-1; assay type: cell-based, human; conditions: 80 μM pre-treatment, LPS 4 h, differentiated THP-1
Procedure: Transcription of TNF-α (NM 000594) and beta-2-microglobin, 132M (NM 004048), in 2.5×10^5 PMA-differentiated THP1 cells was investigated in cells without treatment, stimulated with […] Salmonella LPS, or pretreated for 1 hour with 1 μM dexamethasone or 80 μM aurone 1 followed by 4 hours of incubation with 20 ng/ml LPS. Total RNA was purified after 4 hours of LPS stimulation using the Maxwell 16 LEV simplyRNA Tissue Kit (Promega, WI, USA) per manufacturer's instructions (Jeffries, Kiss et al. 2014). Total RNA concentrations and the 260/280 nm ratios of each RNA sample were assessed using a NanoDrop 2000 UV-Vis spectrophotometer (Thermo Fisher Scientific, MA, USA). SYBR® FAST One-step qRT-PCR (KAPA Biosystems, MA, USA) was used to examine gene transcription after reaction optimization.
QuantiTect® Primer Assay TNF (QT01079561) and B2M (Q300088935) primer (Qiagen, CA, USA) optimization studies, including melt curve analyses to confirm primer specificity and efficiency, were conducted to find appropriate running conditions (Fajardy, Moitrot et al. 2009). Briefly, the optimized conditions were 1 ng of total RNA added to 20 μl of reaction including 150 nM of forward and reverse primers. […] The fold change was calculated by using 2^−ΔΔct normalized to LPS alone (Schmittgen and Livak 2008).

Row | SMILES | IC50 [1] [µM] | reduction of TNFα mRNA levels (TNFα mRNA) [%]
1 | COc1ccc(/C=C2\Oc3c(ccc(O)c3O)C2=O)cc1O [Aurone 1009, (Z)-6,7-dihydroxy-2-(3-hydroxy-4-methoxybenzylidene)benzofuran-3(2H)-one] | 45 | –
2 | O=C1/C(=C/c2ccc(CO)o2)Oc2ccccc21 [aurone 1] | – | 49
